Results from patent EP0539170A1, “Benzodiazepine derivatives and their use as antagonists of cholecystokinin and/or gastrin receptors” (priority 1991, dated 1993).

These compounds were tested against T1, CCK Receptor (Pancreas) (Rattus norvegicus, UniProt P30551) (assay: CCK Receptor Binding (Pancreas), inhibition of specific 125I-CCK-8 binding). Settings: rat whole pancreas membranes; 50 pM 125I-CCK-8; 25°C for 2 hours.
T1 construct: The whole pancreas was dissected free of fat tissue and was homogenized; from tissue; host or cells: rat pancreas membrane homogenate
T1 sequence (P30551 1-444): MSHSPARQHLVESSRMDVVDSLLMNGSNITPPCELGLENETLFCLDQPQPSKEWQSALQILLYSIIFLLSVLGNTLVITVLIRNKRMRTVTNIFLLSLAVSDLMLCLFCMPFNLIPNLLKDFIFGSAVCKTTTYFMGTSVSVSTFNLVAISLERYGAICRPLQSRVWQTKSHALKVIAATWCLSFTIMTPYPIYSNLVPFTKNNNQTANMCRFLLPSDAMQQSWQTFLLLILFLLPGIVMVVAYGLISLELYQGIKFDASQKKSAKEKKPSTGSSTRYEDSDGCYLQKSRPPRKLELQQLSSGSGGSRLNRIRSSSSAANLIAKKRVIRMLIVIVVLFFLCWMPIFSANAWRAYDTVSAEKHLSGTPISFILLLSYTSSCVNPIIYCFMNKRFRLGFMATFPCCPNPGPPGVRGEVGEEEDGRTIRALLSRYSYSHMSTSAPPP
Design: species or system Sprague-Dawley rats
Protocol: CCK-8 sulphated was radiolabelled with ¹²⁵I-Bolton Hunter reagent (2000 Ci/mmole). Receptor binding was performed according to Chang and Lotti (Proc. Natl. Acad. Sci. 83, 4923-4926, 1986) with minor modifications.
Male Sprague-Dawley rats (150-200g) were sacrificed by decapitation. The whole pancreas was dissected free of fat tissue and was homogenized in 25 volumes of ice-cold 10 mM N-2-hydroxyethyl-piperazine-N′-2-ethane sulphonic acid (HEPES) buffer with 0.1% soya bean trypsin inhibitor (pH 7.4 at 25°C) with a Kinematica Polytron. The homogenates were centrifuged at 47,800 g for 10 min. Pellets were resuspended in 10 volumes of binding assay buffer (20mM (HEPES)), 1mM ethylene glycol-bis-(β-aminoethylether-N,N′-tetraacetic acid) (EGTA), 5mM MgCl₂, 150 mM NaCl, bacitracin 0.25 mg/ml, soya bean trypsin inhibitor 0.1 mg/ml, and bovine serum albumin 2 mg/ml pH 6.5 at 25°C) using a Teflon (trademark) homogenizer, 15 strokes at 500 rpm. The homogenate was further diluted in binding assay buffer to give a final concentration of 0.5 mg original wet weight/1 ml buffer. […] All assays were run in duplicate. The reaction mixtures were incubated at 25°C for 2 hours and the reaction terminated by rapid filtration (Brandell 24 well cell harvester) over Whatman GF/C filters, washing 3 x 4 mls with ice-cold 100 Mm NaCl. The radioactivity on the filters was counted with a LKB gamma counter.
Drug displacement studies were performed with at least 10 concentrations of compounds of Formula I and the IC₅₀ values were determined by regression analysis IC₅₀ refers to the concentration of the compound required to inhibit 50% of specific binding of ¹²⁵I-CCK-8.

SMILES | IC50
CCCN1C(=O)C(NC(=O)Nc2cccc(C)c2)N=C(N2CCN(C)CC2)c2cc(C)ccc21 (racemic) [Example 38, N-(3(R,S)-2,3-Dihydro-7-methyl-5-(4-methylpiperazin-1-yl)-2-oxo-1-propyl-1H-1,4-benzodiazepin-3-yl]-N′-[3-methylphenyl]urea] | 1600 nM
CCCN1C(=O)C(NC(=O)Nc2cccc(NC(C)=O)c2)N=C(N2CCN(C)CC2)c2ccccc21 (racemic) [Example 39, N-[3(R,S)-2,3-Dihydro-5-(4-methylpiperazin-1-yl)-2-oxo-1-propyl-1H-1,4-benzodiazepin-3-yl]-N#MIN#-[3-(acetylamino)phenyl] urea] | > 3000 nM
CCCN1C(=O)C(NC(=O)Nc2cccc(C)c2)N=C(N2CCN(C)CC2)c2ccc(C)cc21 (racemic) [Example 42, N-[3(R,S)-2,3-Dihydro-8-methyl-5-(4-methylpiperazin-1-yl)-2-oxo-1-propyl-1H-1,4-benzodiazepin-3-yl]-N′-[3-methylphenyl] urea] | 711 nM
CCCN1C(=O)C(NC(=O)Nc2cccc(C)c2)N=C(N2CCCCC2)c2ccccc21 (racemic) [Example 44, N-[3(R,S)-2,3-Dihydro-2-oxo-5-(piperidin-1-yl)-1-propyl-1H-1,4-benzodiazepin-3-yl]-N′-[3-methylphenyl] urea] | 120 nM
CCCN1C(=O)C(NC(=O)Nc2cccc(C)c2)N=C(N2CCN(C)CC2)c2ccc(N(C)C)cc21 (racemic) [Example 45, N-[3(R,S)-2,3-Dihydro-8-dimethylamino-5-(4-methylpiperazin-1-yl)-2-oxo-1-propyl-1H-1,4-benzodiazepin-3-yl]-N′-[3-methylphenyl] urea] | 956 nM
CCCN1C(=O)C(NC(=O)Nc2cccc(C)c2)N=C(N2CCCCCC2)c2ccccc21 (racemic) [Example 47, N-[3(R,S)-2,3-Dihydro-5-(homopiperidin-1-yl)-2-oxo-1-propyl-1H-1,4-benzodiazepin-3-yl]-N′-[3-methylphenyl] urea] | 23.4 nM
CCCN1C(=O)C(NC(=O)Nc2ccc(N(C)C)cc2)N=C(N2CCN(C)CC2)c2ccccc21 (racemic) [Example 53, N-[3(R,S)-2,3-Dihydro-5-(4-methylpiperazin-1-yl)-2-oxo-1-propyl-1H-1,4-benzodiazepin-3-yl]-#′-[4-(dimethylamino)phenyl] urea] | > 3000 nM
CCCN1C(=O)C(NC(=O)Nc2cccc(C)c2)N=C(N2CCSCC2)c2ccccc21 (racemic) [Example 55, N-[3(R,S)-2,3-Dihydro-2-oxo-1-propyl-5-(thiomorpholin-4-yl)-1H-1,4-benzodiazepin-3-yl]-N′-[3-methylphenyl] urea] | 337 nM
CCCN1C(=O)C(NC(=O)Nc2ccc3c(c2)N(C)CC3)N=C(N2CCN(C)CC2)c2ccccc21 (racemic) [Example 56, N-[3(R,S)-2,3-Dihydro-5-(4-methylpiperazin-1-yl)-2-oxo-1-propyl-1H-1,4-benzodiazepin-3-yl]-N#MIN#-[1-methyl-6-indolinyl] urea] | > 3000 nM
CN1C(=O)C(NC(=O)Nc2cccc(-c3cc(=O)c(O)co3)c2)N=C(N2CCCCCC2)c2ccccc21 (racemic) [Example 62, N-[3(R,S)-2,3-Dihydro-5-(homopiperidin-1-yl)-1-methyl-2-oxo-1H-1,4-benzodiazepin-3-yl]-N′-[3-(5-hydroxy-4-pyron-2-yl)phenyl] urea] | 21.4 nM
Cc1cccc(NC(=O)NC2N=C(N3CCSCC3)c3ccccc3N(C)C2=O)c1 (racemic) [Example 65, N-[3(R,S)-2,3-Dihydro-1-methyl-2-oxo-5-(thiomorpholin-4-yl)-1H-1,4-benzodiazepin-3-yl]-N′-[3-methylphenyl] urea] | 17.2 nM
CCc1cccc(NC(=O)NC2N=C(N3CCN(C)CC3)c3ccccc3N(CC(C)C)C2=O)c1 (single isomer, unassigned; (+)) [Example 27, (+)-N-[2,3-Dihydro-5-(4-methylpiperazin-1-yl)-1-(2-methylpropyl)-2-oxo-1H-1,4-benzodiazepin-3-yl]-N#MIN#-[3-ethylphenyl] urea] | 3080 nM
CCCN1C(=O)C(NC(=O)Nc2cccc(NC(=O)NC)c2)N=C(N2CCN(C)CC2)c2ccccc21 (single isomer, unassigned; (+)) [Example 40, (+)-N-[2,3-Dihydro-5-(4-methylpiperazin-1-yl)-2-oxo-1-propyl-1H-1,4-benzodiazepin-3-yl]-N′-[3-(methylaminocarbonylamino)phenyl] urea] | > 3000 nM

Further lines, results first:

IC50 | SMILES
18.4 nM | Cc1cccc(NC(=O)NC2N=C(N3CCCCCCC3)c3ccccc3N(C)C2=O)c1 (racemic) [Example 43, N-[3(R,S)-2,3-Dihydro-5-(heptamethyleneimin-1-yl)-1-methyl-2-oxo-1H-1,4-benzodiazepin-3-yl]-N#MIN#-[3-methylphenyl] urea]
28.2 nM | CN1C(=O)C(NC(=O)Nc2ccc3c(c2)CCC3)N=C(N2CCCCCC2)c2ccccc21 (racemic) [Example 46, N-[3(R,S)-2,3-Dihydro-5-(homopiperidin-1-yl)-1-methyl-2-oxo-1H-1,4-benzodiazepin-3-yl]-N′-[5-indanyl] urea]
31.4 nM | CN1C(=O)C(NC(=O)Nc2cccc(C(F)(F)F)c2)N=C(N2CCCCCC2)c2ccccc21 (racemic) [Example 48, N-[3(R,S)-2,3-Dihydro-5-(homopiperidin-1-yl)-1-methyl-2-oxo-1H-1,4-benzodiazepin-3-yl]-N′-[3-trifluoromethylphenyl] urea]
57.2 nM | CN(C)c1cccc(NC(=O)NC2N=C(N3CCCCCC3)c3ccccc3N(C)C2=O)c1 (racemic) [Example 49, N-[3(R,S)-2,3-Dihydro-5-(homopiperidin-1-yl)-1-methyl-2-oxo-1H-1,4-benzodiazepin-3-yl]-N′-[3-(dimethylamino)phenyl] urea]
815 nM | CN1C(=O)C(NC(=O)Nc2ccc(C(C)(C)C)cc2)N=C(N2CCCCCC2)c2ccccc21 (racemic) [Example 50, N-[3(R,S)-2,3-Dihydro-5-(homopiperidin-1-yl)-1-methyl-2-oxo-1H-1,4-benzodiazepin-3-yl]-N′-[4-t-butylphenyl] urea]
399 nM | CC(C)c1ccc(NC(=O)NC2N=C(N3CCCCCC3)c3ccccc3N(C)C2=O)cc1 (racemic) [Example 54, N-[3(R,S)-2,3-Dihydro-5-(homopiperidin-1-yl)-1-methyl-2-oxo-1H-1,4-benzodiazepin-3-yl]-N′-[4-isopropylphenyl] urea]
16.7 nM | CN1C(=O)C(NC(=O)Nc2ccc(F)c(F)c2)N=C(N2CCCCCC2)c2ccccc21 (racemic) [Example 57, N-[3(R,S)-2,3-Dihydro-5-(homopiperidin-1-yl)-1-methyl-2-oxo-1H-1,4-benzodiazepin-3-yl]-N′-[3,4-difluorophenyl] urea]
7.16 nM | CN1C(=O)C(NC(=O)Nc2cccc(F)c2)N=C(N2CCCCCC2)c2ccccc21 (racemic) [Example 60, N-[3(R,S)-2,3-Dihydro-5-(homopiperidin-1-yl)-1-methyl-2-oxo-1H-1,4-benzodiazepin-3-yl]-N′-[3-fluorophenyl] urea]
36.1 nM | Cc1cccc(NC(=O)NC2N=C(N3CCCCCCCC3)c3ccccc3N(C)C2=O)c1 (racemic) [Example 61, N-[3(R,S)-2,3-Dihydro-1-methyl-5-(octamethyleneimin-1-yl)-2-oxo-1H-1,4-benzodiazepin-3-yl]-N#MIN#-[3-methylphenyl] urea]
4.39 nM | CCc1cccc(NC(=O)NC2N=C(N3CCCCCC3)c3ccccc3N(C)C2=O)c1 (racemic) [Example 63, N-[3(R,S)-2,3-Dihydro-5-(homopiperidin-1-yl)-1-methyl-2-oxo-1H-1,4-benzodiazepin-3-yl]-N′-[3-ethylphenyl] urea]
3.59 nM | CCN1C(=O)C(NC(=O)Nc2cccc(C)c2)N=C(N2CCCCCC2)c2ccccc21 (racemic) [Example 64, N-[3(R,S)-2,3-Dihydro-1-ethyl-5-(homopiperidin-1-yl)-2-oxo-1H-1,4-benzodiazepin-3-yl]-N′-[3-methylphenyl] urea]
14.2 nM | CN1C(=O)C(NC(=O)Nc2ccccc2)N=C(N2CCCCCC2)c2ccccc21 (racemic) [Example 66, N-[3(R,S)-2,3-Dihydro-5-(homopiperidin-1-yl)-1-methyl-2-oxo-1H-1,4-benzodiazepin-3-yl]-N′-phenyl urea]
